From ChEMBL document CHEMBL6153138, “Discovery of Novel Aromatic Urea-Imidazole Salt Derivatives for Cancer Therapy via Targeting ERK1/2” (J Med Chem, 2025)
Active and inactive are the calls of the source. No cut-off for these calls is given here.

Columns and labels:
4T1-Luc [1] = experiment: Anti-metastatic activity in mouse 4T1-Luc cells assessed as reduction in number of tumor metastatic nodules at 25 to 50 mg/kg, po measured after 20 days; type: functional, organism-based; conditions: dose 25-50 mg/kg, time 20.0 day
MCF7 [2] = experiment: Inhibition of colony formation in human MCF7 cells at 1 uM incubated for 6 hrs in presence of chloroquine by crystal violet staining based analysis; type: functional, cell-based
4T1 [3] = experiment: Antitumor activity against mouse 4T1 cells implanted in female BALB/c mouse model assessed as tumor growth inhibition at 50 mg/kg, po qd measured for 18 days in presence of chloroquine relative to control; type: functional; conditions: 4T1, 432 h, time 18 day, read-out: TGI
Mitochondrial membrane [4] = experiment: Induction of mitochondrial membrane potential loss in human MCF7 cells assessed as increase in JC-1 monomers by measuring increase in green fluorescence at 1 uM by flow cytometry analysis (reference value: 38.0%); type: cell membranes
MCF7 [5] = experiment: Induction of autophagy in human MCF7 cells assessed as increase in Beclin-1 level at 1 uM by Western blot analysis; type: functional, cell-based
[6] = target: Ribosomal protein S6 kinase alpha-1 (Homo sapiens, UniProt Q15418); experiment: Inhibition of human RSK1 at 10000 nM by DiscoverX KINOMEscan assay relative to control
MCF7 [7] = experiment: Induction of apoptosis in human MCF7 cells assessed as increase in PARP1 level at 0.5 to 2 uM by Western blot analysis; type: functional, cell-based; conditions: dose 0.5-2 µM
4T1 [8] = experiment: Antitumor activity against mouse 4T1 cells implanted in female BALB/c mouse model assessed as reduction in tumor growth administered po qd measured for 18 days; type: functional, organism-based; conditions: dose 25-50 mg/kg, time 18.0 day
[9] = target: Serine/threonine-protein kinase TAO2 (Homo sapiens) (UniProt Q9UL54); experiment: Inhibition of human TAO2 at 10000 nM by DiscoverX KINOMEscan assay relative to control
MCF7 [10] = experiment: Inhibition of cell migration in human MCF7 cells at 0.5 to 2 uM incubated for 48 hrs by wound healing assay; type: functional, cell-based; conditions: dose 0.5-2 µM
MCF7 [11] = experiment: Downregulation of vimentin expression in human MCF7 cells at 0.5 to 2 uM; type: functional, cell-based; conditions: dose 0.5-2 µM
4T1 [12] = experiment: Antiproliferative activity against mouse 4T1 cells incubated for 48 hrs by CCK-8 method; type: functional, cell-based; conditions: 4T1, 48 h
MCF7 [13] = experiment: Induction of apoptosis in human MCF7 cells assessed as increase in caspase-3 cleavage at 0.5 to 2 uM by Western blot analysis; type: functional, cell-based; conditions: dose 0.5-2 µM
MCF7 [14] = experiment: Induction of apoptosis in human MCF7 cells assessed as late apoptotic cells at 1 uM incubated for 48 hrs by Annexin V/FITC and PI staining based flow cytometry analysis (reference value: 2.5%); type: functional
[15] = Toxicity in female BALB/c mouse assessed as effect ALB level in serum at 25 to 50 mg/kg, po qd measured after 18 days by biochemical analysis; type: organism-based; conditions: in vivo, 432 h, dose 25-50 mg/kg, time 18 day
[16] = target: T1, Mitogen-activated protein kinase 3 (Homo sapiens, UniProt P27361); experiment: Induction of thermal stabilization of ERK1 (unknown origin) at 10 uM by differential scanning fluorimetry analysis
HCC1937 = experiment: Antiproliferative activity against human HCC1937 cells incubated for 48 hrs by CCK-8 method; type: functional, cell-based; conditions: HCC1937, 48 h
Mitochondrial membrane [17] = experiment: Induction of mitochondrial membrane potential loss in human MCF7 cells assessed as increase in JC-1 monomers by measuring increase in green fluorescence at 0.5 uM by flow cytometry analysis (reference value: 38.0%); type: cell membranes
MCF7 [18] = experiment: Upregulation of C-caspase3 protein expression in human MCF-7 cells at 1 uM incubated for 6 hrs in presence of 3-methyladenine by Western blot analysis; type: functional, cell-based
MCF7 [19] = experiment: Induction of apoptosis in human MCF7 cells assessed as late apoptotic cells at 1 uM incubated for 48 hrs in presence of 3-methyladenine by Annexin V/FITC and PI staining based flow cytometry analysis (reference value: 6.21%); type: functional
MCF7 [20] = experiment: Induction of autophagy in human MCF7 cells assessed as increase in LC3B expression at 1 uM incubated for 48 hrs in presence of 3-methyladenine by Western blot analysis; type: functional, cell-based
4T1 [21] = experiment: Antitumor activity against mouse 4T1 cells implanted in female BALB/c mouse model assessed as reduction in tumor weight at 50 mg/kg, po qd measured for 18 days in presence of chloroquine; type: functional, organism-based; conditions: time 18.0 day
[22] = target: T2, Mitogen-activated protein kinase 1 (Homo sapiens, UniProt P28482); experiment: Inhibition of ERK2 (unknown origin) incubated for 60 mins by luminescence based ADP-Glo kinase assay
MCF7 [23] = experiment: Upregulation of ERK1/2 phosphorylation expression in human MCF7 cells at 2 uM measured after 8 hrs by Western blot analysis; type: functional, cell-based
MCF7 [24] = experiment: Induction of apoptosis in human MCF7 cells assessed as late apoptotic cells at 1 uM incubated for 48 hrs by Annexin V/FITC and PI staining based flow cytometry analysis (reference value: 3.65%); type: functional
MCF7 [25] = experiment: Inhibition of colony formation in human MCF7 cells at 1 uM incubated for 6 hrs in presence of 3-methyladenine by crystal violet staining based analysis; type: functional, cell-based
MCF7 [26] = experiment: Antiproliferative activity against human MCF7 cells harbouring ERK1 knockout incubated for 48 hrs by CCK-8 method; type: functional, cell-based
[27] = target: T1, Mitogen-activated protein kinase 3; experiment: Inhibition of ERK1 (unknown origin) incubated for 60 mins by luminescence based ADP-Glo kinase assay
4T1 [28] = experiment: Antitumor activity against mouse 4T1 cells implanted in female BALB/c mouse model assessed as reduction in number of Ki67-positive proliferative cells at 25 to 50 mg/kg, po qd by immunohistochemical analysis; type: functional, organism-based; conditions: dose 25-50 mg/kg
[29] = target: T2, Mitogen-activated protein kinase 1; experiment: Binding affinity to ERK2 (unknown origin) assessed as dissociation constant by MST analysis
MCF7 [30] = experiment: Activation of ERK1/2 pathway in human MCF7 cells assessed as increase in EGF-induced ERK phosphorylation at 2 uM incubated for 30 mins by Western blot analysis; type: cell-based; conditions: filed as activator
[31] = Cmax in Sprague-Dawley rat at 10 mg/kg, po by LC-MS/MS analysis; type: ADME, organism-based; conditions: in vivo
4T1 [32] = experiment: Antitumor activity against mouse 4T1 cells implanted in female BALB/c mouse model assessed as tumor necrosis at 25 to 50 mg/kg, po qd measured for 18 days by H and E staining based analysis; type: functional, organism-based; conditions: dose 25-50 mg/kg, time 18.0 day
4T1-Luc [33] = experiment: Anti-metastatic activity in mouse 4T1-Luc cells assessed as reduction in condensed nuclei at 25 to 50 mg/kg, po measured after 20 days by H and E staining based analysis; type: functional, organism-based; conditions: dose 25-50 mg/kg, time 20.0 day
[34] = Toxicity in female BALB/c mouse assessed as effect CHO level in serum at 25 to 50 mg/kg, po qd measured after 18 days by biochemical analysis; type: organism-based; conditions: in vivo, 432 h, dose 25-50 mg/kg, time 18 day
MDA-MB-468 = experiment: Antiproliferative activity against human MDA-MB-468 cells incubated for 48 hrs by CCK-8 method; type: functional, cell-based; conditions: MDA-MB-468, 48 h
[35] = Toxicity in female BALB/c mouse assessed as effect on lung at 50 mg/kg, po qd measured after 18 days in presence of chloroquine by H and E staining based analysis; type: organism-based; conditions: in vivo, 432 h, time 18 day

T1 sequence (P27361 whole entry): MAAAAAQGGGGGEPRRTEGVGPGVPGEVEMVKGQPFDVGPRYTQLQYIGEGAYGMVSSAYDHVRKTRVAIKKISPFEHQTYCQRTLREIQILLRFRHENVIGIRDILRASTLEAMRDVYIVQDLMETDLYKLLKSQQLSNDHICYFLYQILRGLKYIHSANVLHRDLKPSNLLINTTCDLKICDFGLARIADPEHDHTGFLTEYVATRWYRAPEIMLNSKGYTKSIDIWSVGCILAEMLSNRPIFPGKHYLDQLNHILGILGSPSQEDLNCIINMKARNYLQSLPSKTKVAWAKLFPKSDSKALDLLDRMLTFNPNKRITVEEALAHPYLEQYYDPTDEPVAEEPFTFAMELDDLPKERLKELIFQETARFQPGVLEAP
T2 sequence (P28482 whole entry): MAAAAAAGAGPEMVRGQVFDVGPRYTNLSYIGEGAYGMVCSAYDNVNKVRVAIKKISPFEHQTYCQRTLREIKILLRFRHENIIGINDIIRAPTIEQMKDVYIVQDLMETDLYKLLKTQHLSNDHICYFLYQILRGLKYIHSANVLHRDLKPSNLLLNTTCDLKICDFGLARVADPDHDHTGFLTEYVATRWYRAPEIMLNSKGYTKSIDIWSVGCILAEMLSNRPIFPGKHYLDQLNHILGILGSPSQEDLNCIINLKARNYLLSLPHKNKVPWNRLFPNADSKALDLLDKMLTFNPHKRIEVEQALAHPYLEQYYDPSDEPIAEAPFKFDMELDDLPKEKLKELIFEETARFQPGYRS
Sequence of Serine/threonine-protein kinase TAO2 (Homo sapiens) (Q9UL54 whole entry): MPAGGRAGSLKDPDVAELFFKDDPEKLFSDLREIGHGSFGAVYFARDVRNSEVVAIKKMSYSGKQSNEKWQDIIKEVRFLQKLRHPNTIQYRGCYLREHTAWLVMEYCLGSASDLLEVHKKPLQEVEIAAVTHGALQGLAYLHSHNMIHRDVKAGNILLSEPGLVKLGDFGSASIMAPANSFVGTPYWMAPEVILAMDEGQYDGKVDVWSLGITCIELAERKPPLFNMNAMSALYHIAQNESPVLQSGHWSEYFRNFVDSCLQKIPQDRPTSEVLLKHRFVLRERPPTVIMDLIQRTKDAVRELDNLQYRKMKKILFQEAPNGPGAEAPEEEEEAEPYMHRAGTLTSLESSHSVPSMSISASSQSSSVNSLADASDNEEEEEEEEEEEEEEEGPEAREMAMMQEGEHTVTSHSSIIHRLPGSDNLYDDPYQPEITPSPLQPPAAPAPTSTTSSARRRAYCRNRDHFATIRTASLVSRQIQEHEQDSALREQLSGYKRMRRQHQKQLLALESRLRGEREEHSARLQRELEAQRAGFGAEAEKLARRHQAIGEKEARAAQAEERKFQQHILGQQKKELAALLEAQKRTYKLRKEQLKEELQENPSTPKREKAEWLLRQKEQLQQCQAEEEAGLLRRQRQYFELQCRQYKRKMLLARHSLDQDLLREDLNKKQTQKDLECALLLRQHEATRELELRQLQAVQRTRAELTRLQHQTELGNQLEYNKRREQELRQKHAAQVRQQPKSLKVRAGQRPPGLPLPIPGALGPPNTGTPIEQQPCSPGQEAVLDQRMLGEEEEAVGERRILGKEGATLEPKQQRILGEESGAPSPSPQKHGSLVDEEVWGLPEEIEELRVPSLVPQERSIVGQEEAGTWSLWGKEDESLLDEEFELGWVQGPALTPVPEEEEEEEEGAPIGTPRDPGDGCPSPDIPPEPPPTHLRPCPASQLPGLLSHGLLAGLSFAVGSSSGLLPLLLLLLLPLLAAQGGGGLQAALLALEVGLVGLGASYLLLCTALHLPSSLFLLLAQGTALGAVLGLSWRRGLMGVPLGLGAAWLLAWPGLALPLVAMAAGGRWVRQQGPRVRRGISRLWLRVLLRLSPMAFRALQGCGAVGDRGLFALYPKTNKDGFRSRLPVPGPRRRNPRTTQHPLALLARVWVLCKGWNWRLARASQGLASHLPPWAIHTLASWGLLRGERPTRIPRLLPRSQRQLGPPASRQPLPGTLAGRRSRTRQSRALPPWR
Sequence of Ribosomal protein S6 kinase alpha-1 (Q15418 whole entry): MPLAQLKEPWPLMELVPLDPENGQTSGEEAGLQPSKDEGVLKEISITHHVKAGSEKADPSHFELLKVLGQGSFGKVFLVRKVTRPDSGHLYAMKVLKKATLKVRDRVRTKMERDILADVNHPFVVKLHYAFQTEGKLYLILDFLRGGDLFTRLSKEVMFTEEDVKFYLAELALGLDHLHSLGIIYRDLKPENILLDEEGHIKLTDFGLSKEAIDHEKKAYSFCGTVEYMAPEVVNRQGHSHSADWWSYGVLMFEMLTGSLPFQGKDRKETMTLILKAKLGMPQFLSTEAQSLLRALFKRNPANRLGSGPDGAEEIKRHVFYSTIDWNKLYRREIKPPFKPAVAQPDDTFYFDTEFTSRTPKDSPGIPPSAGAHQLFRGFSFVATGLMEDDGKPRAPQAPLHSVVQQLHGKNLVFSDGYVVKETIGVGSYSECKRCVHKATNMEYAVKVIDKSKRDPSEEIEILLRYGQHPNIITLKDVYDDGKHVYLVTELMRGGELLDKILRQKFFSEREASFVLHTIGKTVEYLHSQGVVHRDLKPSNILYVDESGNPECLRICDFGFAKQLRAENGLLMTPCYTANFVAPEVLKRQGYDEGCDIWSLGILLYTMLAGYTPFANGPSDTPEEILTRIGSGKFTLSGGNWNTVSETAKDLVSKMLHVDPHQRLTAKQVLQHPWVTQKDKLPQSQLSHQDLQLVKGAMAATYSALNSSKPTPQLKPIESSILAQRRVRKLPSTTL

Structure (SMILES): O=C(Nc1cc(C(F)(F)F)cc(C(F)(F)F)c1)N[C@@H](Cc1ccccc1)Cn1c[n+](Cc2ccc3ccccc3c2)c2ccccc21.[Br-]
- Activity (4T1-Luc [1]): Active
- inhibition (MCF7 [2]): Active
- inhibition in vivo at 50 mg/kg (4T1 [3]): 88.1%
- Activity (Mitochondrial membrane [4]): 48.9%
- Activity (MCF7 [5]): Active
- inhibition [6]: 8%
- Activity (MCF7 [7]): Active
- Activity (4T1 [8]): Dose-dependent-effect
- inhibition [9]: 14%
- inhibition (MCF7 [10]): Active
- Activity (MCF7 [11]): Active
- IC50 (4T1 [12]): 2760 nM
- Activity (MCF7 [13]): Active
- Activity (MCF7 [14]): 9.6%
- Activity [15]: Non-toxic
- Activity [16]: Active
- IC50 (HCC1937): 1680 nM
- Activity (Mitochondrial membrane [17]): 46.6%
- Activity (MCF7 [18]): Active
- Activity (MCF7 [19]): 25.1%
- Activity (MCF7 [20]): inactive
- Activity (4T1 [21]): Active
- IC50 [22]: 97.9 nM
- Activity (MCF7 [23]): Active
- Activity (MCF7 [24]): 13.7%
- inhibition (MCF7 [25]): Active
- Activity (MCF7 [26]): Not active; Compound Showed Less Sensitivity Response
- IC50 [27]: 91.7 nM
- Activity (4T1 [28]): Active
- Kd [29]: 116 nM
- Activity (MCF7 [30]): Active
- Cmax [31]: 770 ng/mL
- Activity (4T1 [32]): Active
- Activity (4T1-Luc [33]): Active
- Activity [34]: Non-toxic
- IC50 (MDA-MB-468): 2150 nM
- Activity [35]: Non-toxic
